Measurements taken from US10369131B2, “Ultrapure tetrahydrocannabinol-11-oic acids” (Corbus Pharmaceuticals, Inc., priority 2013, dated 2019).
“Also recorded” adds a separate entry of the source.

Experiments:
female CD-1 mice [1] = test: Mouse hot plate test for antinociception; type: in vivo
female CD-1 mice [2] = test: Rectal temperature (mouse hypothermia assay); conditions: oral 0.05-56 mg/kg, 90 min after administration
Description: (§1) Compounds were administered at a volume of […] via oral gavage.
(§2) Female CD-1 mice (20-25 g), obtained from Charles River (Raleigh, N.C.), were used for assessment in hot plate nociception, rectal temperature, and ring immobility assays. Separate mice were used for testing each dose of each compound in this battery of procedures. The mice had free access to food and water when in their home cages. All animals were kept in a temperature-controlled (20-22° C.) environment with a 12-hour light-dark cycle (lights on at 7 a.m.).
Each mouse was tested in a battery of three tests, in which cannabinoid CB1 agonists produce in vivo effects in mice (Martin et al., 1991): antinociception (hot plate assay), decreased rectal temperature and ring immobility. Prior to administration of the test compound, rectal temperature and baseline latency in the hot plate test were measured in the mice. The latter procedure involved placing the mouse on a heated surface (mouse cold/hot plate analgesia apparatus; Stoelting, Wood Dale, Ill.) at a setting of 55° C. Time until the mouse lifts or licks a paw was measured, whereupon the mouse was removed from the apparatus. […] Subsequently, the mice were placed on a 5.5 cm ring attached at a height of 16 cm to a ring stand, and the amount of time the animals remained motionless during a 5 min period was recorded. In addition, the number of times the mouse fell or jumped off the ring was recorded. […]
Rectal temperature values were expressed as the difference between control temperature (before injection) and temperature following drug administration (Δ° C.). Antinociception was expressed as the percent maximum possible effect (MPE) using a 30-s maximum test latency as follows: [(test−control)/(30−control)]×100. During assessment for catalepsy, the total amount of time (in seconds) that the mouse remained motionless on the ring apparatus (except for breathing and whisker movement) was measured and was used as an indication of catalepsy-like behavior. […]

[3] = test system: C57Bl mice, bleomycin induced skin fibrosis; test: Bleomycin induced skin fibrosis mouse model of scleroderma; type: in vivo; conditions: for inhibition of skin fibrosis: oral gavage 2.5, 5.0 and 10 mg/kg daily, bleomycin s.c. 14 days, sacrifice day 21
Description: Groups of 8 mice (6-12 week-old C57Bl) received daily s.c. injections of bleomycin (20 ug/mouse) or vehicle for 14 days, followed by one weeks of recovery. In parallel, starting day 1, ultrapure AJA suspended in 2% methylcellulose (MC) or vehicle was administered by oral gavage at 0, 2.5, 5.0 and 10 mg/kg. On day 21, mice were sacrificed. Their skin was harvested and processed for routine histology (H&E, trichrome and picrosirius red stains), immunohistology (paraffin-embedded or frozen samples), in situ hybridization, collagen (SIRCOL) assays, and RNA isolation for real-time qPCR or microarray hybridization. Skin sections were carefully characterized and quantified for dermal inflammation, dermal thickening, collagen accumulation (Trichrome), and collagen cross-linking (Sirius red) in lesional skin.

female CD-1 mice [4] = test: Ring immobility (catalepsy) test
Description: The cataleptic response was measured using the ring test described by Pertwee (Pertwee R G, The Ring Test. A Quantitative Method of Assessing the Cataleptic Effect of Cannabis in Mice, Br. J. Pharmacol. 46:753-763 (1972)). Mice were placed on a horizontal wire ring 5.5 cm in diameter attached to a 16 cm vertical rod. The hind paws and fore paws were placed at opposite sides of the ring. The ambient temperature was maintained at 30° C. and the environment was free of auditory stimuli and bright lights. The response was calculated as the fraction of time the mouse was immobile over a five (5) minute test period.
A dose response was conducted for ultrapure AJA to oral doses of 0.05 to 56 mg/kg.
as §1, §2
Each mouse was tested in a battery of three tests, in which cannabinoid CB1 agonists produce in vivo effects in mice (Martin et al., 1991): antinociception (hot plate assay), decreased rectal temperature and ring immobility. Prior to administration of the test compound, rectal temperature and baseline latency in the hot plate test were measured in the mice. The latter procedure involved placing the mouse on a heated surface (mouse cold/hot plate analgesia apparatus; Stoelting, Wood Dale, Ill.) at a setting of 55° C. Time until the mouse lifts or licks a paw was measured, whereupon the mouse was removed from the apparatus. […] After measurement of baseline temperature and hot plate latency, mice were administered vehicle or drug via oral gavage. […] Subsequently, the mice were placed on a 5.5 cm ring attached at a height of 16 cm to a ring stand, and the amount of time the animals remained motionless during a 5 min period was recorded. In addition, the number of times the mouse fell or jumped off the ring was recorded. If the mouse fell off the ring more than 5 times, the test was terminated.
Rectal temperature values were expressed as the difference between control temperature (before injection) and temperature following drug administration (Δ° C.). Antinociception was expressed as the percent maximum possible effect (MPE) using a 30-s maximum test latency as follows: [(test−control)/(30−control)]×100. During assessment for catalepsy, the total amount of time (in seconds) that the mouse remained motionless on the ring apparatus (except for breathing and whisker movement) was measured and was used as an indication of catalepsy-like behavior. This value was divided by 300 s and multiplied by 100 to obtain a percent immobility. If the mouse fell off the ring more than 5 times, the test was terminated and ring immobility data for the mouse were not included in analysis. Separate between-subjects ANOVAs were used to analyze each measure. Significant differences from control (vehicle) were further analyzed with Tukey post hoc tests (α=0.05) as necessary.

hCB2 receptor = hCB2 receptor (Homo sapiens, UniProt P34972); test: biochemical
Chain of hCB2 receptor (P34972 whole entry): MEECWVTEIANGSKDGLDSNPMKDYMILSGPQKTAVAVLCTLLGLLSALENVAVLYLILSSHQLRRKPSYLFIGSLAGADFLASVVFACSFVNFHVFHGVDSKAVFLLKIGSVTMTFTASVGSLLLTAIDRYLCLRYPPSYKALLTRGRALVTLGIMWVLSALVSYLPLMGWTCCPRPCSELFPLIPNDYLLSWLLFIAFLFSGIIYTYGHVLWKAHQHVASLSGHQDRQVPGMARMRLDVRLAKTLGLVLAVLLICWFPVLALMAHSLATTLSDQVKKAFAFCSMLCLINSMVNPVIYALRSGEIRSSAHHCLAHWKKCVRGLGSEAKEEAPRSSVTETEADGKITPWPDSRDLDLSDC
Description: (§3) When the CB1 or CB2 receptor is activated by an agonist, the affinity of the G protein alpha subunit increases with respect to GTP vs. GDP. As a consequence, GDP is displaced from the G protein and GTP or GTPγS binds. If a radioactive label, such as [^35S], is attached to the GTPγS molecule, then the formation of the G protein/[^35S]GTPγS complex can be directly measured using liquid scintillation spectrophotometry.
(§4) The CB1 and CB2 receptor assays involve membrane preparations purchased from Perkin Elmer (Waltham, Mass.) isolated from a HEK-293 expression system. G-protein coupled signal transduction (GTP-γ-[35S]) assays of test compounds were conducted in an incubation mixture consisting of a test compound (250 nM-1 mM), GDP (20 μM), GTP-γ-[35S] (100 pM), and the hCB1 and hCB2 membrane preparations (0.4 pM) in a total volume of 0.4 mL of assay buffer (50 mM TRIS-HCl, pH 7.4, 1 mM EDTA, 100 mM NaCl, 5 mM MgCl2, 0.5% (w/v) BSA). Nonspecific binding was determined in the presence of 100 μM unlabeled GTP-γ-S, and basal binding was determined in the absence of drug. Duplicate samples were incubated for 1 h at 30° C., and the bound complex was filtered from the reaction mixture as described previously and counted in a liquid scintillation counter. Specific binding was calculated by subtracting nonspecific binding from total binding and dividing by the total basal binding minus nonspecific binding. Data were plotted and analyzed with GraphPad Prism (GraphPad Software, Inc., San Diego, Calif.).

CB1 receptor = CB1 receptor (Homo sapiens, UniProt P21554); test: biochemical
Chain of CB1 receptor (P21554 whole entry): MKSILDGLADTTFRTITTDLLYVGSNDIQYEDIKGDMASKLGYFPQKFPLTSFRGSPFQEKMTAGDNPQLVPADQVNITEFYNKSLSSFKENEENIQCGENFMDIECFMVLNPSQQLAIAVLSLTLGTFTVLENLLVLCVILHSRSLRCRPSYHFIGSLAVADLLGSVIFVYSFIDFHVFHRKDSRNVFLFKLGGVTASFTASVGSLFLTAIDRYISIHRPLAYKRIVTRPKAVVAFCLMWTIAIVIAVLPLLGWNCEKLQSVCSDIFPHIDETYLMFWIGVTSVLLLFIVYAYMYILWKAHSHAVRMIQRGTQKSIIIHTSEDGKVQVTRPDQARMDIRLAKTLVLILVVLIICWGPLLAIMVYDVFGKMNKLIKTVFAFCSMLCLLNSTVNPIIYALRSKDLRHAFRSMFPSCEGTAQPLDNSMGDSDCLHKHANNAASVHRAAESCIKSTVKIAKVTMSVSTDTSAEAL
Description: as §3, §4

[5] = dose response 0.05 to 56 mg/kg oral

Compound: CCCCCCC(C)(C)c1cc(O)c2c(c1)OC(C)(C)[C@@H]1CC=C(C(=O)O)C[C@@H]21 [JBT-101, (6aR,10aR)-3-(1′,1′-dimethylheptyl)-Δ8-tetrahydro-cannabinol-9-carboxylic acid]
- doses required to see analgesia compared with AJA from U.S. Pat. No. 5,338,753 (female CD-1 mice [1]; [5]): required much higher doses
- antinociception in the hot plate test (% MPE) (female CD-1 mice [1]; oral 0.05-56 mg/kg, 90 min after administration, vs vehicle): None of the doses tested produced significant antinociception
- doses at which active in the mouse hot plate assay (female CD-1 mice [1]; oral, FIG. 15): ≥ 30 mg/kg
- change in rectal temperature (hypothermia) (female CD-1 mice [2]): None of the doses tested produced significant; also recorded: inactive
- inhibition of skin thickening ([3]; all oral doses, including 1 mg/kg (data not shown)): equally effective
- inhibition of skin fibrosis [3]: effective at inhibiting skin fibrosis
- inhibition of skin fibrosis ([3]; listed as ultrapure AJA): effective at all doses tested
- doses required to see catalepsy compared with AJA (3a) from U.S. Pat. No. 5,338,753 (female CD-1 mice [4]; [5]): required much higher doses
- percent ring immobility in the catalepsy test (female CD-1 mice [4]; lower oral doses, up to 10 mg/kg): did not affect this measure
- percent ring immobility in the catalepsy test (female CD-1 mice [4]; oral 30 and 56 mg/kg, vs vehicle, p<0.05): significantly increased percent ring immobility
- doses at which active in the ring test (female CD-1 mice [4]; oral in oil, FIG. 14): ≥ 30 mg/kg
- EC50 (hCB2 receptor; hCB2 EC50 Mean (±SEM), GTP-γ-35S turnover, mean of 4 repetitions): 1020 ± 92 nM
- EC50 (hCB2 receptor; hCB2 EC50 Rep 1, GTP-γ-35S turnover, replicate 1): 930 nM
- EC50 (hCB2 receptor; hCB2 EC50 Rep 2, GTP-γ-35S turnover, replicate 2): 815 nM
- EC50 (hCB2 receptor; hCB2 EC50 Rep 3, GTP-γ-35S turnover, replicate 3): 1230 nM
- EC50 (hCB2 receptor; hCB2 EC50 Rep 4, GTP-γ-35S turnover, replicate 4): 1100 nM
- EC50 (CB1 receptor; hCB1 EC50 Mean (±SEM), GTP-γ-35S turnover, mean of 4 repetitions): 9.21 ± 2.04 µM
- EC50 (CB1 receptor; hCB1 EC50 Rep 1, GTP-γ-35S turnover, replicate 1): 13.7 µM
- EC50 (CB1 receptor; hCB1 EC50 Rep 2, GTP-γ-35S turnover, replicate 2): 5.83 µM
- EC50 (CB1 receptor; hCB1 EC50 Rep 3, GTP-γ-35S turnover, replicate 3): 11.6 µM
- EC50 (CB1 receptor; hCB1 EC50 Rep 4, GTP-γ-35S turnover, replicate 4): 5.66 µM
